Experimental findings from US11572341B2, “Biguanide compound and use thereof” (ImmunoMet Therapeutics Inc., priority 2014, dated 2023) are described below.

Counter-ions that a name gives are not always drawn.

Test [1] deals with AMPKa [pT172]. The test is described as follows: AMPKa activation [pT172] in MCF7 cell. In kind it is cell-based.
The test system of test [2] is HCT116 cells. The test is described as follows: Inhibitory effect against cancer cell proliferation (MTT). In kind it is cell-based, human. As to conditions: Homo sapiens, HCT-116; HCT116, MTT, 48 hours; read-out: IC50 (uM) @ HCT116. Here is the method:
The formazane crystals thus formed were dissolved using dimethyl sulfoxide (DMSO) and absorbance of the solution was measured at 560 nm. After culturing for 48 hours, […] synthesized in Examples was indicated as cell viability (%) according to each treated concentration.

On to `CN(C)C(=N)NC(=N)N1CCCCC1.Cl` [Example 1, N1,N1-dimethyl-N5-piperidine Biguanide Hydrochloride], for which the “AMPKa activation [pT172] (Unit/ml) @ MCF7 cell” value (shortened to “AMPKa activation [pT172]”) in test [1] (50 uM) worked out at 4.6 Unit/ml.

As for `Cl.N=C(NC(=N)N1CCCCC1)N1CCCCC1` [Example 2, N1-piperidin-N5-piperidine Biguanide Hydrochloride], the “AMPKa activation [pT172]” value in test [1] (50 uM) came out at 4.9 Unit/ml.

As to `CN(C)C(=N)NC(=N)N(C)Cc1cccc2ccccc12.Cl` [Example 3, N1,N1-dimethyl-N5-methyl-N5-1-(naphthalen-1-yl)methyl Biguanide Hydrochloride], the “AMPKa activation [pT172]” value in test [1] (50 uM) amounted to 6.2 Unit/ml.

In the case of `CN(C)C(=N)NC(=N)NCc1ccc2c(c1)OCO2.Cl` [Example 4, N1,N1-dimethyl-N5-(benzo[d][1,3]dioxol-5-yl)methyl Biguanide Hydrochloride], in test [1] (50 uM), the “AMPKa activation [pT172]” value was found to be 3.8 Unit/ml.

Turning to `Cl.N=C(NC(=N)N1CCCC1)N1CCCCC1` [Example 5, N1-piperidin-N5-pyrrolidine Biguanide Hydrochloride], the “AMPKa activation [pT172]” value in test [1] (50 uM) worked out at 5.8 Unit/ml.

Regarding `Cl.N=C(NCc1ccc2c(c1)OCO2)NC(=N)N1CCCCC1` [Example 9, N1-piperidin-N5-(benzo[d][1,3]dioxol-5-yl)methyl Biguanide Hydrochloride], the “AMPKa activation [pT172]” value in test [1] (50 uM) stood at 16.3 Unit/ml.

As for `N=C(NC(=N)Nc1cccc(Br)c1)Nc1cccc(Br)c1` [Example 11, N1-(3-bromo)phenyl-N5-3-bromo)phenyl Biguanide Hydrochloride], the IC50 in test [2] came to 4.8 µM.

Regarding `Cl.N=C(NCCc1ccc(Cl)cc1)NC(=N)N1CCCCC1` [Example 13], the “AMPKa activation [pT172]” value in test [1] (50 uM) is recorded as 7.0 Unit/ml.

As to `Cl.N=C(NCCc1ccccc1Cl)NC(=N)N1CCCCC1` [Example 14], in test [1] (50 uM), the “AMPKa activation [pT172]” value was 11.0 Unit/ml.

In the case of `CCOC1CCN(C(=N)NC(=N)Nc2cccc(OC(F)(F)F)c2)CC1.Cl` [Example 25, N1-(4-ethoxy)piperidin-N5-3-trifluoromethoxy)phenyl Biguanide Hydrochloride], the IC50 in test [2] is 8.4 µM.

As for `CCOC1CCN(C(=N)NC(=N)Nc2cccc(OC(F)(F)F)c2)CC1.Cl` [Example 25], the “AMPKa activation [pT172]” value in test [1] (5 uM) is reported as 5.8 Unit/ml; in test [1] (10 uM), 7.0 Unit/ml; in test [1] (50 uM), “cell death”.

Take `CN1CCN(C(=N)NC(=N)Nc2ccc(Cl)cc2)CC1.Cl` [Example 27, N1-(4-methyl)piperazin-N5-4-chloro)phenyl Biguanide Hydrochloride]: the IC50 in test [2] was greater than 100 µM.

As for `CN1CCN(C(=N)NC(=N)Nc2ccc(Cl)cc2)CC1.Cl` [Example 27], the figures for the “AMPKa activation [pT172]” value in test [1] (5 uM), in test [1] (10 uM) and in test [1] (50 uM) were 9.8 Unit/ml, 8.7 Unit/ml and 14.3 Unit/ml, respectively.

With `CN1CCN(C(=N)NC(=N)NCc2cccc(Cl)c2)CC1.Cl` [Example 35], the figures for the “AMPKa activation [pT172]” value in test [1] (5 uM), in test [1] (10 uM) and in test [1] (50 uM) were 5.0 Unit/ml, 4.2 Unit/ml and 3.4 Unit/ml, respectively.

Take `CN1CCN(C(=N)NC(=N)Nc2ccc(F)c(F)c2)CC1.Cl` [Example 38]: the “AMPKa activation [pT172]” value in test [1] (5 uM) turned out to be 5.9 Unit/ml; in test [1] (10 uM), 5.1 Unit/ml; in test [1] (50 uM), 6.4 Unit/ml.

As to `Cl.N=C(NCc1ccc(OC(F)(F)F)cc1)NC(=N)Nc1cccnc1` [Example 42], the “AMPKa activation [pT172]” value in test [1] (5 uM) came to 4.3 Unit/ml; in test [1] (10 uM), 8.7 Unit/ml; in test [1] (50 uM) it was 19.1 Unit/ml.

With `CC1CCN(C(=N)NC(=N)Nc2ccc(Cl)cc2)CC1.Cl` [Example 55], the “AMPKa activation [pT172]” value in test [1] (5 uM) is 3.5 Unit/ml; in test [1] (10 uM), 5.3 Unit/ml; in test [1] (50 uM), “cell death”.

On to `Cl.N=C(NC(=N)N1CCCC1)Nc1ccc(Br)cc1` [Example 72], for which the “AMPKa activation [pT172]” value in test [1] (5 uM) came out at 5.4 Unit/ml; in test [1] (10 uM) it was 6.6 Unit/ml; in test [1] (50 uM), 19.1 Unit/ml.

With `CCCCN/C(=N\C1CCCCCC1)NC(=N)N.Cl` [Example 92, N1-butyl-N2-cycloheptyl Biguanide Hydrochloride], the “AMPKa activation [pT172]” value in test [1] (50 uM) was 21.1 Unit/ml.

Take `CN(C)/C(=N\Cc1ccc(F)cc1)NC(=N)N1CCCCC1.Cl` [Example 93, N1,N1-dimethyl-N2-(4-fluoro)benzyl-N5-piperidine Biguanide Hydrochloride]: in test [1] (50 uM), the “AMPKa activation [pT172]” value amounted to 6.6 Unit/ml.

For `CNC(=N)NC(=N)N.Cl` [Example 108, N1-methyl Biguanide Hydrochloride], the “AMPKa activation [pT172]” value in test [1] (50 uM) was 3.9 Unit/ml.

On to `Cl.N=C(N)NC(=N)N1CCOCC1` [Example 118], for which the “AMPKa activation [pT172]” value in test [1] (50 uM) was found to be 6.0 Unit/ml.

On to `Cl.N=C(N)NC(=N)Nc1ccc(OC(F)(F)F)cc1` [Example 140], for which the entries for the “AMPKa activation [pT172]” value in test [1] (5 uM), in test [1] (10 uM) and in test [1] (50 uM) were 6.2 Unit/ml, 6.6 Unit/ml and 8.7 Unit/ml, respectively.

As for `CC1(C)CC(=O)N=C(NC(=N)N2CCCCC2)N1.Cl` [Example 151, N-(6,6-dimethyl-4-oxo-1,4,5,6-tetrahydropyrimidin-2-yl)piperidin-1-carboximidamide Hydrochloride], the “AMPKa activation [pT172]” value in test [1] (5 uM) is 9.4 Unit/ml; in test [1] (10 uM), 7.7 Unit/ml; in test [1] (50 uM), 11.2 Unit/ml.

With `CC1(C)CC(=O)N=C(NC(=N)N)N1.Cl` [Example 152], the “AMPKa activation [pT172]” value in test [1] (5 uM) stood at 7.9 Unit/ml; in test [1] (10 uM) it was 8.1 Unit/ml; in test [1] (50 uM), 8.6 Unit/ml.

For the compound `Cl.N=C(NC1=NCCCN1)N1CCCCC1` [Example 153, N-(1,4,5,6-tetrahydropyrimidin-2-yl)piperidin 1-carboximidamide Hydrochloride], the “AMPKa activation [pT172]” value in test [1] (5 uM) is listed as 8.0 Unit/ml; in test [1] (10 uM) it was 6.8 Unit/ml; in test [1] (50 uM), 6.3 Unit/ml.

As for `Cl.N=C(NC1=NC(=O)CC(C2CC2)N1)N1CCCCC1` (stereo not drawn) [Example 157, N-(6-cyclopropyl-4-oxo-1,4,5,6-tetrahydropyrimidin-2-yl)piperidin-1-carboximidamide Hydrochloride], the “AMPKa activation [pT172]” value in test [1] (5 uM) amounted to 4.17 Unit/ml; in test [1] (10 uM) it was 2.68 Unit/ml; in test [1] (50 uM), 2.00 Unit/ml.

Turning to `CC1CN=C(NC(=N)N2CCCCC2)NC1.Cl` (stereo not drawn) [Example 158, N-(5-methyl-1,4,5,6-tetrahydropyrimidin-2-yl)piperidin-1-carboximidamide Hydrochloride], the figures for the “AMPKa activation [pT172]” value in test [1] (5 uM), in test [1] (10 uM) and in test [1] (50 uM) were 3.11 Unit/ml, 2.49 Unit/ml and 3.75 Unit/ml, respectively.

With `CC(C)C1CC(=O)N=C(NC(=N)N2CCCCC2)N1.Cl` (stereo not drawn) [Example 159, N-(6-isopropyl-4-oxo-1,4,5,6-tetrahydropyrimidin-2-yl)piperidin-1-carboximidamide Hydrochloride], the “AMPKa activation [pT172]” value in test [1] (5 uM) is on record as 2.17 Unit/ml; in test [1] (10 uM) it was 2.35 Unit/ml; in test [1] (50 uM), 3.02 Unit/ml.

For the compound `CC1CNC(NC(=N)N)=NC1=O.Cl` (stereo not drawn) [Example 160, 1-(5-methyl-4-oxo-1,4,6-tetrahydropyrimidin-3-yl)guanidine Hydrochloride], the “AMPKa activation [pT172]” value in test [1] (5 uM) turned out to be 2.51 Unit/ml; in test [1] (10 uM), 2.65 Unit/ml; in test [1] (50 uM), 2.84 Unit/ml.

As to `CC(C)CC1CC(=O)N=C(NC(=N)N2CCCCC2)N1.Cl` (stereo not drawn) [Example 161, N-(6-isobutyl-4-oxo-1,4,5,6-tetrahydropyrimidin-2-yl)piperidin-1-carboximidamide Hydrochloride], the figures for the “AMPKa activation [pT172]” value in test [1] (5 uM), in test [1] (10 uM) and in test [1] (50 uM) were 3.03 Unit/ml, 2.73 Unit/ml and 4.06 Unit/ml, respectively.

In the case of `CC1CCNC(NC(=N)N2CCCCC2)=N1.Cl` (stereo not drawn) [Example 162, N-(4-methyl-1,4,5,6-tetrahydropyrimidin-2-yl)piperidin-1-carboximidamide Hydrochloride], the results for the “AMPKa activation [pT172]” value in test [1] (5 uM), in test [1] (10 uM) and in test [1] (50 uM) were 4.41 Unit/ml, 4.04 Unit/ml and 7.34 Unit/ml, respectively.

With `CCCC1CC(=O)N=C(NC(=N)N2CCCCC2)N1.Cl` (stereo not drawn) [Example 163, N-(6-propyl-4-oxo-1,4,5,6-tetrahydropyrimidin-2-yl)piperidin-1-carboximidamide Hydrochloride], the “AMPKa activation [pT172]” value in test [1] (5 uM) was found to be 4.07 Unit/ml; in test [1] (10 uM), 3.76 Unit/ml; in test [1] (50 uM), 4.48 Unit/ml.

`CC1CC(=O)N=C(NC(=N)N)N1.Cl` (stereo not drawn) [Example 164]: the figures for the “AMPKa activation [pT172]” value in test [1] (5 uM), in test [1] (10 uM) and in test [1] (50 uM) were 2.89 Unit/ml, 3.43 Unit/ml and 2.77 Unit/ml, respectively.

Regarding `CCC1CCNC(NC(=N)N2CCCCC2)=N1.Cl` (stereo not drawn) [Example 165, N-(4-ethyl-1,4,5,6-tetrahydropyrimidin-2-)piperidin-1-carboximidamide Hydrochloride], the “AMPKa activation [pT172]” value in test [1] (5 uM) amounted to 3.80 Unit/ml; in test [1] (10 uM), 4.36 Unit/ml; in test [1] (50 uM) it was 9.16 Unit/ml.

The term IC50 denotes the point on the concentration scale where inhibition reaches its midpoint.
